The text below walks through data of patent US6489308B1, “Inhibitors of serine protease activity, methods and compositions for treatment of nitric-oxide-induced clinical conditions” (Trustees of University of Technology Corporation, priority 1999, dated 2002).

“Also recorded” adds a separate entry of the source.

Holding throughout (format): cell-based
In one assay the test system is NF-κB. As to the kind of experiment: Electrophoretic mobility shift assay of NF-κB induced by interleukin-18. The settings on record: incubation with IL-18, FIG. 3. Background: A gel shift assay detects complexes by their altered migration in electrophoresis.
The next assay relates to RAW 264.5 macrophages. The experiment in a line: NO release (nitrite, Greiss reagent) upon induction with LPS and γ-IFN in macrophagic cells. The following applies: FIG. 1 / FIG. 4.
The test system of a further assay is p-ERK. The experiment in a line: Western blot of p-ERK (p42/p44 MAP kinase). The following applies: FIG. 5. A general note: Immunoblotting shows a protein as a band on a membrane.
The subject of a further assay is cytomegalovirus (CMV). As to the kind of experiment: Cytomegalovirus replication in infected RAW 264.5 macrophages. The following applies: RAW 264.5 macrophages infected with CMV; FIG. 6.
Assay [1] concerns herpes simplex virus (HSV). The experiment in a line: Herpes simplex virus replication. The settings on record: FIG. 7.
In a further assay the test system is iNOS protein. The experiment in a line: Western blot of iNOS protein induction by LPS and γ-interferon in macrophagic cells. The following applies: γ-IFN and LPS, FIG. 2.

On to `Cc1cccc(Cc2nnc(C(=O)C(NC(=O)[C@@H]3CCCN3C(=O)[C@@H](NC(=O)OCc3ccccc3)C(C)C)C(C)C)o2)c1` (stereo partly drawn) [CE-2072, benzyloxycarbonyl-L-valyl-N-[1-(2-[5-(3-methylbenzyl)-1,3,4-oxadiazolyl]carbonyl)-2-(S)-methylpropyl]-L-prolinamide, reference compound], for which, in the assay with NF-κB, the “induction of active NF-κB” value is given as “inhibit the induction of active NF-κB”. Besides, the “NO levels induced by γ-IFN and LPS (measured as NO2-)” value in the assay with RAW 264.5 macrophages is “inhibits NO levels”.

For “α1-antitrypsin: glycoprotein of MW 51,000 with 417 amino acids and 3 oligosaccharide side chains; naturally occurring serine protease inhibitor”, the “induction of active NF-κB” value in the assay with NF-κB was “inhibit the induction of active NF-κB”. The “level and/or phosphorylation of p-ERK” value in the assay on p-ERK is “inhibits the level and/or phosphorylation of p-ERK”. In addition, the CMV replication entry with cytomegalovirus (CMV) is recorded as “blocks CMV replication”. For the same compound, in assay [1], the “replication of HSV” value is “inhibits replication of HSV”. For the same compound, the “induction of iNOS protein” value with iNOS protein is reported as “inhibits induction of iNOS protein”. Besides, the “NO levels induced by γ-IFN and LPS (measured as NO2-)” value with RAW 264.5 macrophages was “efficiently block γ-IFN- and LPS-induced NO synthesis; also recorded: inhibits NO levels”.
